Active and inactive are the calls of the source.
Assays:
[1] = molecular target: Serine/threonine-protein kinase PAK 6 (Homo sapiens, UniProt Q9NQU5)
[2] = molecular target: Phosphatidylethanolamine-binding protein 1 (Homo sapiens, UniProt P30086)
[3] = molecular target: High affinity nerve growth factor receptor (Homo sapiens, UniProt P04629)
[4] = molecular target: Serine/threonine-protein kinase Nek7 (Homo sapiens, UniProt Q8TDX7)
[5] = molecular target: Dual specificity protein kinase CLK2 (Homo sapiens, UniProt P49760)
Sequence of Dual specificity protein kinase CLK2 (P49760 whole entry): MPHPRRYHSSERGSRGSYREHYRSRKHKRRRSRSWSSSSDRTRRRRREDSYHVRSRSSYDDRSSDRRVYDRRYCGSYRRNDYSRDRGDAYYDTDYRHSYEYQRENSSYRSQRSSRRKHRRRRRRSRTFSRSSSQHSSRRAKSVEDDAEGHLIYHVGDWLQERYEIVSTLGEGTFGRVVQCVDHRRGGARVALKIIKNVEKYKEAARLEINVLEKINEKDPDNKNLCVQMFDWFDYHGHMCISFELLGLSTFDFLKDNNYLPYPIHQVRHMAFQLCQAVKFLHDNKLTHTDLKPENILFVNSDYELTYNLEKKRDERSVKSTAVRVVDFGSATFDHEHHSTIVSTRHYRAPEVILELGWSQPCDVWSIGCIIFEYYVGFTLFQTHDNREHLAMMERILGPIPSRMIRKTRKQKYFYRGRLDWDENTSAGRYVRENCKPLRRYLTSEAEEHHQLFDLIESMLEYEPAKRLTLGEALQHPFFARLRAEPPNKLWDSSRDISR

UMP-CMP kinase = molecular target: T1, UMP-CMP kinase (Homo sapiens, UniProt P30085)
T1 sequence (P30085 whole entry): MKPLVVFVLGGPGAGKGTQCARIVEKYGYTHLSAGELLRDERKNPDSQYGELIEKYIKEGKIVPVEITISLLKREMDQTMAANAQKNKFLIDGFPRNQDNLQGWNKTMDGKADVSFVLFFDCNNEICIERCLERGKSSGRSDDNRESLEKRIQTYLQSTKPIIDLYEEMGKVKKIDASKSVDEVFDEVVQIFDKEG

[6] = molecular target: Choline-phosphate cytidylyltransferase A (Homo sapiens, UniProt P49585)
Sequence of Choline-phosphate cytidylyltransferase A (P49585 whole entry): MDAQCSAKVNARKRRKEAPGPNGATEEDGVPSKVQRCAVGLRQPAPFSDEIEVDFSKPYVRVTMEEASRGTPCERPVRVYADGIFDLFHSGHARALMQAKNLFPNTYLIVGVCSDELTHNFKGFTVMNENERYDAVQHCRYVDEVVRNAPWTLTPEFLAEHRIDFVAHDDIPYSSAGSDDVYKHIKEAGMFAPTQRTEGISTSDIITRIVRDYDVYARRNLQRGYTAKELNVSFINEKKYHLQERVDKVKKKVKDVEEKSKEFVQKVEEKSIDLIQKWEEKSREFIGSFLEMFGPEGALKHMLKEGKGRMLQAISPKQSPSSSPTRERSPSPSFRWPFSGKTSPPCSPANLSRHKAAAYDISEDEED

[7] = molecular target: T2, Receptor-type tyrosine-protein kinase FLT3 (Homo sapiens, UniProt P36888)
T2 sequence (P36888 whole entry): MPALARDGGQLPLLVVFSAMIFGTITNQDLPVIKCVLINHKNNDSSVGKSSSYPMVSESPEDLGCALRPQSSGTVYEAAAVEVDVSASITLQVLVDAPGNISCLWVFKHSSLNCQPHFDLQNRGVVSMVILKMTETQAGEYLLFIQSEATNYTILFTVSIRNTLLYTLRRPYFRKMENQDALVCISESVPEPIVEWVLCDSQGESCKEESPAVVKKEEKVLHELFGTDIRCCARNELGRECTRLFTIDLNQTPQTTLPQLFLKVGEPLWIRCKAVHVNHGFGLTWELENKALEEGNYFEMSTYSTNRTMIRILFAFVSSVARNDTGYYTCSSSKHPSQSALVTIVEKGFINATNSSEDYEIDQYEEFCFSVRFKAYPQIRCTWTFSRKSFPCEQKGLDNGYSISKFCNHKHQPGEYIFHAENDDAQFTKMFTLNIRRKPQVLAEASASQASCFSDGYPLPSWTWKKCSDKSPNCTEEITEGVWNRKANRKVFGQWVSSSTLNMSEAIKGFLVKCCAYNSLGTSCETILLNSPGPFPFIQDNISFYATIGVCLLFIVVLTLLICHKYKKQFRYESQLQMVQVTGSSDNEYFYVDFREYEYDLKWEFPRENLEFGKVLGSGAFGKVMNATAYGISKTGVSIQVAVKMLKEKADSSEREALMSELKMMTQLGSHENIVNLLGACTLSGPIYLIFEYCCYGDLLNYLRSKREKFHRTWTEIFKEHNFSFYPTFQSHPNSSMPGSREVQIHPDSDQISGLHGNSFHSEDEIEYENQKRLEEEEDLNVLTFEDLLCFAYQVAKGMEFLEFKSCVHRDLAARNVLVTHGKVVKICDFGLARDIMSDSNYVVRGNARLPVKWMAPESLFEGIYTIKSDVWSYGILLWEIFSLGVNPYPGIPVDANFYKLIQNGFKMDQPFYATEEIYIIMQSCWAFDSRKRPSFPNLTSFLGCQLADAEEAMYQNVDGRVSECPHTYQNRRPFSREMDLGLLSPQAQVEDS

[8] = molecular target: Proto-oncogene tyrosine-protein kinase receptor Ret (Homo sapiens, UniProt P07949)
Sequence of Proto-oncogene tyrosine-protein kinase receptor Ret (P07949 whole entry): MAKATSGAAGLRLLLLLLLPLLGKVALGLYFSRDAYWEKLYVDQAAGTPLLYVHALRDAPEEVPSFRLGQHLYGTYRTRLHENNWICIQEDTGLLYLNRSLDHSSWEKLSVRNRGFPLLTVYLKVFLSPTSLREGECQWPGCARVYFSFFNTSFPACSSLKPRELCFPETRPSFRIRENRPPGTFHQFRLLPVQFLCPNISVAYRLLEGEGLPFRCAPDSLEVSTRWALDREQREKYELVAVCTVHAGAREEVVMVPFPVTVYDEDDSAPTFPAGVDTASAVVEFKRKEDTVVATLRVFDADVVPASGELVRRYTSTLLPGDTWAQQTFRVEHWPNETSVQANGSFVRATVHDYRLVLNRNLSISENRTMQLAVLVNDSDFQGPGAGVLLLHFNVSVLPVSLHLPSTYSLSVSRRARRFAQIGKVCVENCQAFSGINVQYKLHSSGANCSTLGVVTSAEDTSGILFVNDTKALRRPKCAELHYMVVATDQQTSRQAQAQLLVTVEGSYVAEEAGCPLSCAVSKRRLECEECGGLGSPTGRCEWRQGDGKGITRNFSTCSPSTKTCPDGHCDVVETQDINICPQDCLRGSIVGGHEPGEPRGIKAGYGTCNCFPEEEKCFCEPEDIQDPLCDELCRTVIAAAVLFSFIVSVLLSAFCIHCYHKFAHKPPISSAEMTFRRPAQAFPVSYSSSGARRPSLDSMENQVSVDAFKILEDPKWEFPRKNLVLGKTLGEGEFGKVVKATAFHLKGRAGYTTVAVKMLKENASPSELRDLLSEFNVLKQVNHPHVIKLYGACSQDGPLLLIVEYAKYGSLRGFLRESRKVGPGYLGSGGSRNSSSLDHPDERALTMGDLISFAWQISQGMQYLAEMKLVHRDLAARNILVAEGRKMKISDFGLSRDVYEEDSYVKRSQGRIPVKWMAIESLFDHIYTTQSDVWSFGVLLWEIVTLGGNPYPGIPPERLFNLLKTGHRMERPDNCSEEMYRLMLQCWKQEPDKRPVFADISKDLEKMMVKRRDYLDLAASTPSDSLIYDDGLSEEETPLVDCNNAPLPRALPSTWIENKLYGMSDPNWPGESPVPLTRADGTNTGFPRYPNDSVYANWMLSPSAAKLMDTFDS

Ephrin type-A receptor 1 = molecular target: T3, Ephrin type-A receptor 1 (Homo sapiens, UniProt P21709)
T3 sequence (P21709 whole entry): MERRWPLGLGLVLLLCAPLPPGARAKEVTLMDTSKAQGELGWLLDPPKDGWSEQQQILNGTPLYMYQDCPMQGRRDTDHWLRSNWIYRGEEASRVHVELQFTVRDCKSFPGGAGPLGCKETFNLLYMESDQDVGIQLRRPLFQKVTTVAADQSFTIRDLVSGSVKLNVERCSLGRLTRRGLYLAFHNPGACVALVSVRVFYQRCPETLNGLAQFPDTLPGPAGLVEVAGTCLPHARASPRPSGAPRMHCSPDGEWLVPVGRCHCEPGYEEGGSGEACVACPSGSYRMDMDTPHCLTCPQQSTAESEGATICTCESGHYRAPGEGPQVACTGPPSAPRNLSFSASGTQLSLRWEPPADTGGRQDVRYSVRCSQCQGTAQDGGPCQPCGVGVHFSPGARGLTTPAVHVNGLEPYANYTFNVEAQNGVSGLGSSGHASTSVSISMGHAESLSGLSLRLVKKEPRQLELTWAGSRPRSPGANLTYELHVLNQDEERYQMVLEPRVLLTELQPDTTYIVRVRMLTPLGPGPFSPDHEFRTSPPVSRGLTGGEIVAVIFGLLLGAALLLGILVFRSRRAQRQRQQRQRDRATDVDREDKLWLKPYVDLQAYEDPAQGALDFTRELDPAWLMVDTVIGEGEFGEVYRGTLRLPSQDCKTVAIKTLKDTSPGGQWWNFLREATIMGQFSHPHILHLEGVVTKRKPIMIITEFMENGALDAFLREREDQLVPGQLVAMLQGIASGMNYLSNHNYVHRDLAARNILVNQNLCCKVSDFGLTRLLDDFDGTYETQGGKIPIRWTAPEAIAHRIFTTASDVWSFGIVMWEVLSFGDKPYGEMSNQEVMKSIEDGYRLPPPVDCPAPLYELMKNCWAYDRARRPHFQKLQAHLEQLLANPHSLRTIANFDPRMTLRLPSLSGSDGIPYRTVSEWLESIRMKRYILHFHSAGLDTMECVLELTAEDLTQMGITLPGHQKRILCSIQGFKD

[9] = molecular target: Dual specificity testis-specific protein kinase 1 (Homo sapiens, UniProt Q15569)
Sequence of Dual specificity testis-specific protein kinase 1 (Q15569 whole entry): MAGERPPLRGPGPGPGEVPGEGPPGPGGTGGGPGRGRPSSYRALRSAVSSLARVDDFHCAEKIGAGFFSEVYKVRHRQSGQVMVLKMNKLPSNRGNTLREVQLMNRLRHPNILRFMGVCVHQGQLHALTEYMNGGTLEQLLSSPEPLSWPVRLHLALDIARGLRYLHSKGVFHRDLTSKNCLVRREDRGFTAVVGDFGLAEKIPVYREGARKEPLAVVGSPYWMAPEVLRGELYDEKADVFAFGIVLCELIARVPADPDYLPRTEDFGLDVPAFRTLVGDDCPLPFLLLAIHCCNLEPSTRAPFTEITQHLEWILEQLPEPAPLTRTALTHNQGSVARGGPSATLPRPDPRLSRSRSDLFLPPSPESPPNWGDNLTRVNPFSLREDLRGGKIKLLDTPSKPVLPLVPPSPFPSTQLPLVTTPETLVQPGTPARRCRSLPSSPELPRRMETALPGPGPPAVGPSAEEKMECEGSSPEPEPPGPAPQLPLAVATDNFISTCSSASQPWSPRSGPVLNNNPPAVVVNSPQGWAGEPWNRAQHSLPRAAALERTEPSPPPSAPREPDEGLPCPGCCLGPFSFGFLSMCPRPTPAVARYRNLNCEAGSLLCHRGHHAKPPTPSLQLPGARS
Note: in the data inactive means no Kd found up to 30 µM.

Sequence of High affinity nerve growth factor receptor (P04629 whole entry): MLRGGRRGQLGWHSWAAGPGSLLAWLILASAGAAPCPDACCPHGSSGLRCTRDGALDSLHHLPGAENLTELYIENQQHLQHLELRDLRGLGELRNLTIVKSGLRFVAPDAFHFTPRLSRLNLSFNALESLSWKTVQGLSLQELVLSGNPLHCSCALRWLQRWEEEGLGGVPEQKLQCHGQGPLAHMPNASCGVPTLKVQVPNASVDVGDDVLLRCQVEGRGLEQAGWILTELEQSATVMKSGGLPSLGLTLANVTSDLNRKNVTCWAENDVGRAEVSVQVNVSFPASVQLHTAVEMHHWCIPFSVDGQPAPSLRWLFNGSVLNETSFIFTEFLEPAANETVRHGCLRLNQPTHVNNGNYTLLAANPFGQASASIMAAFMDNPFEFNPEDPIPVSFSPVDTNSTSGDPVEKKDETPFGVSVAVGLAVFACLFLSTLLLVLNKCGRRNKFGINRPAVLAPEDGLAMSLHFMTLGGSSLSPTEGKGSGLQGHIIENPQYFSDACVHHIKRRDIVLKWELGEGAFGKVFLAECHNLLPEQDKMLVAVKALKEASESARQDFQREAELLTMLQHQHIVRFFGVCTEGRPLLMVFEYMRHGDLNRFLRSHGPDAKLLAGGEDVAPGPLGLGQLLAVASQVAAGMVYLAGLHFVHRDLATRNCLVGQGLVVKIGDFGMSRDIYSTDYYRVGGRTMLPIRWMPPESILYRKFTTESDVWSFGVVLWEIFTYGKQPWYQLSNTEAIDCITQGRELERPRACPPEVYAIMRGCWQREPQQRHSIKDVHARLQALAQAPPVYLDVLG
Sequence of Serine/threonine-protein kinase Nek7 (Q8TDX7 whole entry): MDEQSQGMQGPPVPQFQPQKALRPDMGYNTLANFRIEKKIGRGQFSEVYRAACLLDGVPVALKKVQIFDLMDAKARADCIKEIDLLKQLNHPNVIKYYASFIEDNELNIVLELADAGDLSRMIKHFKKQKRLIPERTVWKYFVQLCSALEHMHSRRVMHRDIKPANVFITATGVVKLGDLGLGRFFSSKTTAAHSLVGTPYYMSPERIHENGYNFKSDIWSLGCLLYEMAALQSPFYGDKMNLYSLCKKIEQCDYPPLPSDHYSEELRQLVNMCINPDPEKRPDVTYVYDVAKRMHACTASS
Sequence of Serine/threonine-protein kinase PAK 6 (Q9NQU5 whole entry): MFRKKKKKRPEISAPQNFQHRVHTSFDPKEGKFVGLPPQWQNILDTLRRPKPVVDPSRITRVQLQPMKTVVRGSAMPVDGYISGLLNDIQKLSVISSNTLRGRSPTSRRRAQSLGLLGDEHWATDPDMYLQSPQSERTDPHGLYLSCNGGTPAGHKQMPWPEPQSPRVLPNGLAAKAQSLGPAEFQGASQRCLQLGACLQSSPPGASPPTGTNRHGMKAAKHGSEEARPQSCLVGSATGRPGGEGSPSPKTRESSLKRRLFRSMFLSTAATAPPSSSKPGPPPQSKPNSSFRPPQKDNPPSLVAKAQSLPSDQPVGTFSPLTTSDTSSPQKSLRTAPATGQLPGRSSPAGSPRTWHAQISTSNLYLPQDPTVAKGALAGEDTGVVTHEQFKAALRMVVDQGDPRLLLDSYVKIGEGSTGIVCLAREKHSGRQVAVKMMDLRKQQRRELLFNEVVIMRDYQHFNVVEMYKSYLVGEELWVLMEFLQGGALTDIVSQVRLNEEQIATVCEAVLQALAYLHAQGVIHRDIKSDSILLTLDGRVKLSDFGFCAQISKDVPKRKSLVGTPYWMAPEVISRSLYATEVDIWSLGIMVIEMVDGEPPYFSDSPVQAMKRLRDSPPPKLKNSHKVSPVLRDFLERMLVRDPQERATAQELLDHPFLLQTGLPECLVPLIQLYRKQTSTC
Sequence of Phosphatidylethanolamine-binding protein 1 (P30086 whole entry): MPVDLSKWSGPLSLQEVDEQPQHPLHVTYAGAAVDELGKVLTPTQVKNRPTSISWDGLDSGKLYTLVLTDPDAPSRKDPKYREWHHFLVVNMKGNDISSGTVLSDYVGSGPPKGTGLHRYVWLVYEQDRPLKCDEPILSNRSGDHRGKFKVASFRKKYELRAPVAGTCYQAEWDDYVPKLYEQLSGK

| Structure (SMILES) | Kd [1] | Kd [2] | Kd [3] | Kd [4] | Kd [5] | Kd (UMP-CMP kinase) | Kd [6] | Kd [7] | Kd [8] | Kd (Ephrin type-A receptor 1) | Kd [9] |
| --- | --- | --- | --- | --- | --- | --- | --- | --- | --- | --- | --- |
| COc1cc2nccc(Oc3ccc(NC(=O)C4(C(=O)Nc5ccc(F)cc5)CC4)cc3)c2cc1OC [CABOZANTINIB] | > 30 µM (inactive) | > 30 µM (inactive) | 4.11 µM (active) | > 30 µM (inactive) | > 30 µM (inactive) | > 30 µM (inactive) | – | – | – | – | – |
| COc1cc2c(Oc3ccc4[nH]c(C)cc4c3F)ncnc2cc1OCCCN1CCCC1 [CEDIRANIB] | – | > 30 µM (inactive) | – | – | – | > 30 µM (inactive) | > 30 µM (inactive) | – | – | – | – |
| CC1(C)CNc2cc(NC(=O)c3cccnc3NCc3ccncc3)ccc21 [MOTESANIB] | – | > 30 µM (inactive) | – | – | – | > 30 µM (inactive) | > 30 µM (inactive) | – | – | – | – |
| NC[C@@](O)(c1ccc(Cl)cc1)c1ccc(-c2cn[nH]c2)cc1 [AT-13148] | – | > 30 µM (inactive) | – | – | > 30 µM (inactive) | > 30 µM (inactive) | > 30 µM (inactive) | > 30 µM (inactive) | > 30 µM (inactive) | – | – |
| C=CCN(/C=C1/C(=O)O[C@H](COC)[C@@]2(C)C1=C(O)C(=O)C1=C2[C@H](OC(C)=O)C[C@]2(C)C(=O)CC[C@@H]12)CC=C [SONOLISIB] | > 30 µM (inactive) | – | – | > 30 µM (inactive) | – | – | – | > 30 µM (inactive) | > 30 µM (inactive) | > 30 µM (inactive) | > 30 µM (inactive) |
| C[C@@H]1COC(Nc2ccc3ncnc(Nc4ccc(OCc5nccs5)c(Cl)c4)c3c2)=N1 [VARLITINIB] | > 30 µM (inactive) | – | > 30 µM (inactive) | > 30 µM (inactive) | > 30 µM (inactive) | – | – | > 30 µM (inactive) | > 30 µM (inactive) | > 30 µM (inactive) | > 30 µM (inactive) |
| CN(C)C/C=C/C(=O)Nc1cc2c(Nc3ccc(F)c(Cl)c3)ncnc2cc1O[C@H]1CCOC1 [AFATINIB] | – | > 30 µM (inactive) | – | – | – | – | > 30 µM (inactive) | – | – | – | – |
| Cn1cc(-c2[nH]c3cc(NC(=O)[C@H](N)C4CCCCC4)cc4c3c2C=NNC4=O)cn1 | 0.019 µM | > 30 µM (inactive) | > 30 µM (inactive) | > 30 µM (inactive) | > 30 µM (inactive) | > 30 µM (inactive) | – | 0.05 µM (active) | 0.01 µM (active) | > 30 µM (inactive) | > 30 µM (inactive) |
| NC(=O)c1ccc(N(C(N)=O)c2c(F)cccc2F)nc1-c1ccc(F)cc1F [VX-702] | > 30 µM (inactive) | > 30 µM (inactive) | > 30 µM (inactive) | > 30 µM (inactive) | > 30 µM (inactive) | > 30 µM (inactive) | – | > 30 µM (inactive) | > 30 µM (inactive) | > 30 µM (inactive) | > 30 µM (inactive) |
| COc1cc(F)c(F)c(Nc2ccc(I)cc2F)c1NS(=O)(=O)C1(C[C@H](O)CO)CC1 [REFAMETINIB] | > 30 µM (inactive) | > 30 µM (inactive) | > 30 µM (inactive) | > 30 µM (inactive) | > 30 µM (inactive) | – | – | > 30 µM (inactive) | > 30 µM (inactive) | > 30 µM (inactive) | > 30 µM (inactive) |
| O[C@H]1CC[C@H](Nc2ncc3nc(Nc4c(F)cc(F)cc4F)n([C@H]4CCOC4)c3n2)CC1 [TANZISERTIB] | > 30 µM (inactive) | > 30 µM (inactive) | > 30 µM (inactive) | > 30 µM (inactive) | > 30 µM (inactive) | – | – | > 30 µM (inactive) | – | > 30 µM (inactive) | > 30 µM (inactive) |
| Cn1cnc2c(F)c(Nc3ccc(Br)cc3Cl)c(C(=O)NOCCO)cc21 [SELUMETINIB] | – | > 30 µM (inactive) | – | – | – | > 30 µM (inactive) | > 30 µM (inactive) | – | – | – | – |
| COc1cc2ncnc(Nc3ccc(O)cc3)c2cc1OC [WHI-P131] | > 30 µM (inactive) | > 30 µM (inactive) | > 30 µM (inactive) | > 30 µM (inactive) | > 30 µM (inactive) | > 30 µM (inactive) | – | 1.31 µM (active) | 21.9 µM (active) | > 30 µM (inactive) | > 30 µM (inactive) |
| C=CC(=O)Nc1cc(Nc2nccc(-c3cn(C)c4ccccc34)n2)c(OC)cc1N(C)CCN(C)C [OSIMERTINIB] | – | > 30 µM (inactive) | > 30 µM (inactive) | > 30 µM (inactive) | > 30 µM (inactive) | > 30 µM (inactive) | – | > 30 µM (inactive) | > 30 µM (inactive) | > 30 µM (inactive) | – |
| COc1ccc2c(OCc3nnc4ccc(-c5ccccc5)nn34)ccnc2c1 [AMG-208] | – | > 30 µM (inactive) | – | – | > 30 µM (inactive) | > 30 µM (inactive) | > 30 µM (inactive) | > 30 µM (inactive) | > 30 µM (inactive) | > 30 µM (inactive) | > 30 µM (inactive) |
| CCN1CCN(Cc2ccc(Nc3ncc(F)c(-c4cc(F)c5nc(C)n(C(C)C)c5c4)n3)nc2)CC1 [ABEMACICLIB] | – | – | > 30 µM (inactive) | – | – | – | > 30 µM (inactive) | – | > 30 µM (inactive) | > 30 µM (inactive) | > 30 µM (inactive) |
| CC1(COc2ccc3c(c2)ncn3-c2ccc3cccc(N4CCC(N)CC4)c3n2)COC1 [CRENOLANIB] | > 30 µM (inactive) | > 30 µM (inactive) | 0.008 µM (active) | > 30 µM (inactive) | – | 0.003 µM (active) | – | – | 0.81 µM (active) | > 30 µM (inactive) | > 30 µM (inactive) |
| COc1cccc2cc(-c3nc([C@H]4CC[C@H](C(=O)O)CC4)n4ncnc(N)c34)[nH]c12 [OSI-027] | – | > 30 µM (inactive) | > 30 µM (inactive) | – | > 30 µM (inactive) | > 30 µM (inactive) | > 30 µM (inactive) | > 30 µM (inactive) | 0.057 µM (active) | – | – |
| O=S(=O)(c1cccc2c(O)nccc12)N1CCCNCC1 [HYDROXYFASUDIL] | – | > 30 µM (inactive) | > 30 µM (inactive) | > 30 µM (inactive) | > 30 µM (inactive) | > 30 µM (inactive) | – | > 30 µM (inactive) | > 30 µM (inactive) | > 30 µM (inactive) | – |
| C[C@]1(O)C[C@@H](c2nc(-c3ccc4ccc(-c5ccccc5)nc4c3)c3c(N)nccn32)C1 [LINSITINIB] | > 30 µM (inactive) | – | – | – | – | – | > 30 µM (inactive) | – | – | – | > 30 µM (inactive) |

— ChEMBL document CHEMBL3991601, “The target landscape of clinical kinase drugs” (Science, 2017)
